This passage reports EC50 results from US10596172B2 (Celgene CAR LLC, priority 2008, dated 2020).

The subject of the experiment is B cell lymphoma cell lines. Briefly: B cell lymphoma proliferation assay. The class given is cell-based.
[1] abbreviates: Homo sapiens, DOHH-2, DOHH2 B cell lymphoma cell line, read-out: EC50 (μM) DOHH2.
The mark [2] stands for this setting: Homo sapiens, WSUDLCL2, WSU-DLCL2 B cell lymphoma cell line, read-out: EC50 (μM) WSU-DLCL2.
The mark [3] stands for this setting: DHL4 B cell lymphoma cell line, read-out: EC50 (μM) DHL4.

Like-named read-outs stand apart in the source and are kept apart here.

Regarding `C=CC(=O)Nc1cccc(Nc2nc(Nc3ccc(N(C)CCOC)nc3)ncc2F)c1` [Compound I-77, N-(3-(5-fluoro-2-(6-((2-methoxyethyl)(methyl)amino)pyridin-3-ylamino)pyrimidin-4-ylamino)phenyl)acrylamide], the EC50 under setting [1] is 0.1 to 1 µM.

Take `C=CC(=O)Nc1cccc(Nc2nc(Nc3ccc(OCC4CCN(C)CC4)nc3)ncc2F)c1` [Compound I-78, N-(3-(5-fluoro-2-(6-((1-methylpiperidin-4-yl)methoxy)pyridin-3-ylamino)pyrimidin-4-ylamino)phenyl)acrylamide]: the EC50 under setting [1] fell in the range of 0.1 to 1 µM.

Consider `C=CC(=O)Nc1cccc(Nc2nc(Nc3ccc(OC4CCC4)nc3)ncc2F)c1` [Compound I-79, N-(3-(2-(6-cyclobutoxypyridin-3-ylamino)-5-fluoropyrimidin-4-ylamino)phenyl)acrylamide], for which the EC50 under setting [1] was 1 to 10 µM.

`C=CC(=O)Nc1cccc(Nc2nc(Nc3ccc(OCCCS(C)(=O)=O)nc3)ncc2F)c1` [Compound I-80, N-(3-(5-fluoro-2-(6-(3-(methylsulfonyl)propoxy)pyridin-3-ylamino)pyrimidin-4-ylamino)phenyl)acrylamide]: the half-maximal effective concentration (EC50) under setting [1] lay in the range of 0.1 to 1 µM.

With `C=CC(=O)Nc1cccc(Oc2nc(Nc3cccc(OCC4CCCN(C)C4)c3)ncc2F)c1` (stereo not shown) [Compound I-81, N-(3-(5-fluoro-2-(3-((1-methylpiperidin-3-yl)methoxy)phenylamino)pyrimidin-4-yloxy)phenyl)acrylamide], the EC50 under setting [1] lay in the range of 0.1 to 1 µM.

For the molecule `C=CC(=O)Nc1cccc(Nc2nc(Nc3ccc(OCc4ccccn4)c(Cl)c3)ncc2F)c1` [Compound I-86, N-(3-(2-(3-chloro-4-(pyridin-2-ylmethoxy)phenylamino)-5-fluoropyrimidin-4-ylamino)phenyl)acrylamide], under setting [1], the concentration for a half-maximal effect (EC50) was greater than 10 µM.

As for `C=CC(=O)Nc1cc(Nc2nc(Nc3ccc(OCCOC)cc3)ncc2F)ccc1F` [Compound I-87, N-(2-fluoro-5-(5-fluoro-2-(4-(2-methoxyethoxy)phenylamino)pyrimidin-4-ylamino)phenyl)acrylamide], under setting [1], the EC50 was 1 to 10 µM.

For the molecule `COCCOc1ccc(Nc2ncc(F)c(Nc3cccc(NC(=O)/C=C/CN4CC[C@H](O)C4)c3)n2)cc1` [Compound I-88, (S,E)-N-(3-(5-fluoro-2-(4-(2-methoxyethoxy)phenylamino)pyrimidin-4-ylamino)phenyl)-4-(3-hydroxypyrrolidin-1-yl)but-2-enamide], under setting [1], the EC50 lay in the range of 1 to 10 µM.

With `COCCOc1ccc(Nc2ncc(F)c(Nc3cccc(NC(=O)/C=C/CN4CC[C@@H](O)C4)c3)n2)cc1` [Compound I-89, (R,E)-N-(3-(5-fluoro-2-(4-(2-methoxyethoxy)phenylamino)pyrimidin-4-ylamino)phenyl)-4-(3-hydroxypyrrolidin-1-yl)but-2-enamide], under setting [1], the 50% effective concentration (EC50) lay within 1 to 10 µM.

In the case of `C=CC(=O)Nc1cccc(Nc2nc(Nc3ccc(OCC4CCN(C)CC4)cc3)ncc2F)c1` [Compound I-90, N-(3-(5-fluoro-2-(4-((1-methylpiperidin-4-yl)methoxy)phenylamino)pyrimidin-4-ylamino)phenyl)acrylamide], under setting [1], the concentration for a half-maximal effect (EC50) fell in the range of 0.1 to 1 µM.

As to `C=CC(=O)Nc1cccc(Nc2nc(Nc3cccc(OC(C)(C)CO)c3)ncc2F)c1` [Compound I-91, N-(3-(5-fluoro-2-(3-(1-hydroxy-2-methylpropan-2-yloxy)phenylamino)pyrimidin-4-ylamino)phenyl)acrylamide], the 50% effective concentration (EC50) runs as follows: under setting [1], 1 to 10 µM; under setting [2], 1 to 10 µM.

Consider `C=CC(=O)Nc1cccc(Nc2nc(Nc3ccc(OCCOC)nc3)ncc2F)c1` [Compound I-103, N-(3-(5-fluoro-2-(6-(2-methoxyethoxy)pyridine-3-ylamino)pyrimidin-4-ylamino)phenyl)acrylamide], for which the 50% effective concentration (EC50) under setting [2] was 1 to 10 µM.

For the molecule `C=CC(=O)Nc1cccc(Nc2nc(Nc3cccc(OCCO)c3)ncc2F)c1` [Compound I-105, N-(3-(5-fluoro-2-(3-(2-hydroxyethoxy)phenylamino)pyrimidin-4-ylamino)phenyl)acrylamide], the 50% effective concentration (EC50) is, setting by setting: under setting [1], 0.1 to 1 µM; under setting [2], 1 to 10 µM.

For `C=CC(=O)Nc1cccc(Nc2nc(Nc3ccc(OCCO)nc3)ncc2C(C)=O)c1` [Compound I-121, N-(3-{5-Acetyl-2-[6-(2-hydroxy-ethoxy)-pyridin-3-ylamino]-pyrimidin-4-ylamino}-phenyl)-acrylamide], the half-maximal effective concentration (EC50) under setting [1] was in the range of 1 to 10 µM.

As for `C=CC(=O)Nc1cccc(Nc2nc(Nc3ccc(OCCOC)nc3)ncc2C(C)=O)c1` [Compound I-122, N-(3-{5-Acetyl-2-[6-(2-methoxy-ethoxy)-pyridin-3-ylamino]-pyrimidin-4-ylamino}-phenyl)-acrylamide], the EC50 under setting [1] is 1 to 10 µM.

Regarding `C=CC(=O)Nc1cccc(Nc2nc(Nc3ccc(OCCOC)cc3)ncc2C(C)=O)c1` [Compound I-124, N-(3-{5-Acetyl-2-[4-(2-methoxy-ethoxy)-phenylamino]-pyrimidin-4-ylamino}-phenyl)-acrylamide], under setting [1], the EC50 was in the range of 1 to 10 µM.

On to `C=CC(=O)Nc1cccc(Nc2nc(Nc3ccc4c(c3)N(C)CCO4)ncc2F)c1` [Compound I-126, N-(3-(2-(4-methyl-2,3-dihydrobenzo[1,4]oxazin-6-yl)amino-5-fluoropyrimidin-4-ylamino)phenyl)acrylamide], for which the EC50 under setting [1] was less than 0.1 µM.

For `C=CC(=O)N1CCOc2ccc(Nc3nc(Nc4ccc(OCCO)nc4)ncc3C(C)=O)cc21` [Compound I-128, 1-(6-{5-Acetyl-2-[6-(2-hydroxy-ethoxy)-pyridin-3-ylamino]-pyrimidin-4-ylamino}-2,3-dihydro-benzo[1,4]oxazin-4-yl)-propenone], the EC50 under setting [1] lay within 1 to 10 µM.

As to `C=CC(=O)N1CCOc2ccc(Nc3nc(Nc4ccc5c(c4)CC(=O)N5)ncc3C(C)=O)cc21` [Compound I-129, 5-[5-Acetyl-4-(4-acryloyl-3,4-dihydro-2H-benzo[1,4]oxazin-6-ylamino)-pyrimidin-2-ylamino]-1,3-dihydro-indol-2-one], the EC50 under setting [1] lay within 1 to 10 µM.

For the molecule `C=CC(=O)N1Cc2ccc(Nc3nc(Nc4cccc(OC)c4)ncc3C(F)(F)F)cc2C1` [Compound I-132, 1-(5-(5-trifluoromethyl-2-(3-methoxyphenylamino)pyrimidin-4-yl)amino-1,3-dihydroisoindol-2-yl)2-propen-1-one], the EC50 under setting [3] was 1 to 10 µM and the 50% effective concentration (EC50) under setting [1] was in the range of 1 to 10 µM.

As for `C=CC(=O)Nc1cccc(Nc2nc(Nc3cc(OC)c(OC)c(OC)c3)ncc2F)c1` [Compound I-133, 4-(3-acrylamidophenylamino)-5-fluoro-2-(3,4,5-trimethoxyphenylamino)-pyrimidine], the half-maximal effective concentration (EC50) is, setting by setting: under setting [3], less than 0.1 µM; under setting [1], 0.1 to 1 µM.

Turning to `C=CC(=O)Nc1cccc(Nc2nc(Nc3ccc(OC)c(OC)c3)ncc2F)c1` [Compound I-134, 4-(3acrylamidophenylamino)-5-fluoro-2-(3,4-dimethoxyphenylamino)-pyrimidine], the half-maximal effective concentration (EC50) is, setting by setting: under setting [3], less than 0.1 µM; under setting [1], 0.1 to 1 µM.

In the case of `C=CC(=O)N1CCC[C@@H](Nc2nc(Nc3cccc(OCCN4CCOCC4)c3)ncc2F)C1` [Compound I-135, (R)-1-(3-(5-fluoro-2-(3-(2-morpholinoethoxy)phenylamino)pyrimidin-4-ylamino)piperidin-1-yl)prop-2-en-1-one], the EC50 by setting is: under setting [3], greater than 10 µM; under setting [1], greater than 10 µM.

For the molecule `C=CC(=O)Nc1cccc(Nc2nc(Nc3cccc(OCCCS(C)(=O)=O)c3)ncc2F)c1` [Compound I-138, 4-(3-acrylamidophenylamino)-5-fluoro-2-(3-(3-(methylsulfonyl)propoxy)phenylamino)-pyrimidine], the concentration for a half-maximal effect (EC50) was 1 to 10 µM under setting [3] and 1 to 10 µM under setting [1].

Regarding `C=CC(=O)N1CCOc2ccc(Nc3nc(Nc4ccc(OCCOC)cc4)ncc3F)cc21` [Compound I-141, 1-(6-(5-fluoro-2-(4-(2-methoxyethoxy)phenylamino)pyrimidin-4-ylamino)-2H-benzo[b][1,4]oxazin-4(3H)-yl)prop-2-en-1-one], the EC50 under setting [1] was 1 to 10 µM.

Turning to `C=CC(=O)N1CCOc2ccc(Nc3nc(Nc4ccc(N(C)C(=O)C(F)(F)F)nc4)ncc3C(C)=O)cc21` [Compound I-142, N-(5-(5-acetyl-4-(4-acryloyl-3,4-dihydro-2H-benzo[b][1,4]oxazin-6-ylamino)pyrimidin-2-ylamino)pyridin-2-yl)-2,2,2-trifluoro-N-methylacetamide], the EC50 under setting [1] lay within 1 to 10 µM.

Turning to `C=CC(=O)Nc1cccc(Nc2nc(Nc3ccc4c(c3)N(C(=O)C(F)(F)F)CCO4)ncc2F)c1` [Compound I-143, N-(3-(2-(4-trifluoroacetyl-2,3-dihydrobenzo[1,4]oxazin-6-yl)amino-5-fluoropyrimidin-4-ylamino)phenyl)acrylamide], the EC50 lay in the range of 1 to 10 µM under setting [3], 1 to 10 µM under setting [1] and 1 to 10 µM under setting [2].

`C=CC(=O)N1CCC[C@@H](Nc2nc(Nc3cccc(Cl)c3)ncc2F)C1` [Compound I-147, (R)-1-(3-(2-(3-chlorophenylamino)-5-fluoropyrimidin-4-ylamino)piperidin-1-yl)prop-2-en-1-one]: the EC50 under setting [1] fell in the range of 1 to 10 µM.

As to `C=CC(=O)N1CCOc2ccc(Nc3nc(Nc4ccc(OCCOC)cc4)ncc3C(C)=O)cc21` [Compound I-150, 1-(6-{5-Acetyl-2-[4-(2-methoxy-ethoxy)-phenylamino]-pyrimidin-4-ylamino}-2,3-dihydro-benzo[1,4]oxazin-4-yl)-propenone], the concentration for a half-maximal effect (EC50) reads like this: under setting [3], 1 to 10 µM; under setting [1], 1 to 10 µM; under setting [2], 1 to 10 µM.

With `C=CC(=O)Nc1cccc(Nc2nc(Nc3ccc4c(cnn4C(=O)OC(C)(C)C)c3)ncc2F)c1` [Compound I-151], the concentration for a half-maximal effect (EC50) under setting [3] lay in the range of 1 to 10 µM and the EC50 under setting [1] lay in the range of 1 to 10 µM.

For `C=CC(=O)N1CCOc2ccc(Nc3nc(Nc4ccc(N5CCCC5=O)cc4)ncc3C(C)=O)cc21` [Compound I-152, 1-{4-[5-Acetyl-4-(4-acryloyl-3,4-dihydro-2H-benzo[1,4]oxazin-6-ylamino)-pyrimidin-2-ylamino]-phenyl}-pyrrolidin-2-one], the EC50 under setting [1] was 1 to 10 µM.

Take `C=CC(=O)Nc1cccc(Nc2nc(Nc3ccc4c(cnn4C)c3)ncc2F)c1` [Compound I-155]: the half-maximal effective concentration (EC50) by setting is: under setting [3], 1 to 10 µM; under setting [1], 1 to 10 µM; under setting [2], 1 to 10 µM.
